Read-outs that look alike come from different tables or passages of the source.
Tests used:
[1] = tested on: Guinea Pig Ileal Longitudinal Muscle; test: GPI, shift of the compound's effect by naloxone or nor-BNI; design: GPI nor-BN1 Ke: unit not given here
Procedure: (§1) The test of the compounds of this invention for agonist and antagonist activities was carried out in according to the method proposed by Takemori et al. (Takemori, A, E. et al.: Eur. J. Pharmacal., 1982, 85, 163) using Guinea Pig Ileal Longitudinal Muscle Mouse Vas Deferens (MVD).

δ opioid receptor [2] = target: T1, δ opioid receptor (Cavia porcellus, UniProt A0A286XTF2); test: Bonding (binding) assay, guinea pig brain homogenate, DPDPE (hot) / DADLE (cold)
T1 construct: the homogenate of the brain of a guinea pig; from tissue; host or cells: guinea pig brain homogenate
Procedure: (§2) In the test for bonding, the homogenate of the brain of a guinea pig was diluted with Tris buffer in a ratio calculated to give to the produced solution a protein content of 0.7 mg per prot/tube was used as incorporated in the reaction solution. With regard to ligands for binding assay, 3H-DAGO (μ), DPDPE (δ), and EKC (κ) were used for hot samples and naloxone (μ), DADLE (δ), and naloxone (κ) for cold samples.

Mouse Vas Deferens (MVD) = test: Agonist activity in Mouse Vas Deferens (MVD); details: read-out: MVD IC50
Procedure: as §1

[3] = tested on: Guinea Pig Ileal Longitudinal Muscle; test: Agonist activity in Guinea Pig Ileal Longitudinal Muscle (GPI); details: guinea pig ileum
Procedure: as §1

μ opioid receptor = target: T2, μ opioid receptor (Cavia porcellus, UniProt A0ACM8Q262); test: Bonding (binding) assay, guinea pig brain homogenate, 3H-DAGO (hot) / naloxone (cold); details: for Ki: guinea pig brain homogenate; for Ki ratio κ/μ: selectivity ratio
T2 construct: 3H-DAGO (DAMGO) radioligand, cold naloxone
Procedure: as §2

δ opioid receptor [4] = test: Bonding (binding) assay, guinea pig brain homogenate, DPDPE (hot) / DADLE (cold); details: μ/δ
Procedure: as §2

mouse T cells = test: Inhibiting proliferation of mouse T cells by Con-A stimulation ([3H]thymidine uptake, spleen cells); type: cell-based
Procedure: Now, the immunosuppressive activity of the compound 19 which is representative of the compounds of the present invention will be shown. Activity in inhibiting proliferation of mouse T cells by Con-A stimulation
A monocellular suspension was prepared by sterilely removing the spleen from a mouse and passing the spleen through a mesh. This suspension was adjusted to a concentration of 5×10^6 cells/ml and dispensed by the unit of 100 μl in all the individual wells of a 96-well plate. […] Eight hours before completion of the incubation, [^3 H]thymidine was added to the contents of the wells in a fixed ratio of 2 μCi/10 μl/well. Eight hours after this addition, the cells in the wells were collected on filter papers with the aid of a cell harvester. The cells on the filter papers were dried, then combined with a toluene type scintillator, and counted for the radioactivity of the [^3 H] thymidine occluded in the cells by means of a scintillation counter.
The ratio of suppression of T cell proliferation was calculated in accordance with the following formula:
Rate of suppression=(Radioactivity in the absence of compound-Radioactivityafter addition of compound)/(Radioactivity in the absence of compound-Radioactivity in the absence of ConA)

κ opioid receptor = target: T3, κ opioid receptor (Cavia porcellus, UniProt P41144); test: Bonding (binding) assay, guinea pig brain homogenate, EKC (hot) / naloxone (cold)
T3 construct: the homogenate of the brain of a guinea pig; from tissue; host or cells: guinea pig brain homogenate
Procedure: as §2

δ-receptor = target: T4, δ-receptor (Mus musculus, UniProt P32300); test: Antagonism to DPDPE in Mouse Vas Deferens (MVD)
T4 construct: from tissue; host or cells: mouse vas deferens

[5] = guinea pig brain homogenate, read-out: Bonding assay Ki value δ
[6] = Mus musculus, T-cell, ConA-stimulated mouse T cells, read-out: IC50, activity in inhibiting T cell hyperplasia (Table 3)
[7] = MVD Antagonism to DPDPE, pA2, (20 nM)
[8] = MVD Antagonism to DPDPE, pA2, (50 nM)
[9] = MVD Antagonism to DPDPE at 100 nM, pA2, at 100 nM
[10] = Mus musculus, T-cell, 48 h, read-out: Ratio of suppression of T cell proliferation

T4 sequence (P32300 whole entry): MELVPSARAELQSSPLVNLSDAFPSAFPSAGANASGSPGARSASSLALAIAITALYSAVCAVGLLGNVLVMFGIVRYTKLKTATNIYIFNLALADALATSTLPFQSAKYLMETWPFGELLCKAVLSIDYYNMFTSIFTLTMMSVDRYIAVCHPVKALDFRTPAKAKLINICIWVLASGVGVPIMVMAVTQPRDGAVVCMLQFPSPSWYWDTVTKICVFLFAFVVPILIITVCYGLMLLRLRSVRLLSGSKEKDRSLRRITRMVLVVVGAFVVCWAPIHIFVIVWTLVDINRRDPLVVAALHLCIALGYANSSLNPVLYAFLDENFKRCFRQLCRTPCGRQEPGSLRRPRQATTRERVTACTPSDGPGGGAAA
T1 sequence (A0A286XTF2 1-366): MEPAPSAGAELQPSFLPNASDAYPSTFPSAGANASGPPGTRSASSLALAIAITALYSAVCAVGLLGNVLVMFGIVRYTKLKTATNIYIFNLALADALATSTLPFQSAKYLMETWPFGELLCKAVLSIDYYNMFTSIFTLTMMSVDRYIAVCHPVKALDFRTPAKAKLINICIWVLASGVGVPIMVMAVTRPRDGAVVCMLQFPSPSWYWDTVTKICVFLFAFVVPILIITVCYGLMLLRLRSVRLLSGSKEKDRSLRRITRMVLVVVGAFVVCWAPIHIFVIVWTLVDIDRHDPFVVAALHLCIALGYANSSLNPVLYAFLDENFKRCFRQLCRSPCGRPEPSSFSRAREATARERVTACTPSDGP
T3 sequence (P41144 whole entry): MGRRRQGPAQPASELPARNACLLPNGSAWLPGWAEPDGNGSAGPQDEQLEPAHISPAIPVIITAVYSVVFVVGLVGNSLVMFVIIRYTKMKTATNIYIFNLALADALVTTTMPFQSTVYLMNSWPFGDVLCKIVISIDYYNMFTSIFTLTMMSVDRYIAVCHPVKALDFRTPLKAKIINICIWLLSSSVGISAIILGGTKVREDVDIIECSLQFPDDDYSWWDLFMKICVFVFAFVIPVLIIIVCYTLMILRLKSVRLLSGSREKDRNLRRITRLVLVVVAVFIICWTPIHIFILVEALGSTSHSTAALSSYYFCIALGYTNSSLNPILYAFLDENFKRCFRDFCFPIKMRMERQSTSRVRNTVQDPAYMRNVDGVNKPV
T2 sequence (A0ACM8Q262 1-400): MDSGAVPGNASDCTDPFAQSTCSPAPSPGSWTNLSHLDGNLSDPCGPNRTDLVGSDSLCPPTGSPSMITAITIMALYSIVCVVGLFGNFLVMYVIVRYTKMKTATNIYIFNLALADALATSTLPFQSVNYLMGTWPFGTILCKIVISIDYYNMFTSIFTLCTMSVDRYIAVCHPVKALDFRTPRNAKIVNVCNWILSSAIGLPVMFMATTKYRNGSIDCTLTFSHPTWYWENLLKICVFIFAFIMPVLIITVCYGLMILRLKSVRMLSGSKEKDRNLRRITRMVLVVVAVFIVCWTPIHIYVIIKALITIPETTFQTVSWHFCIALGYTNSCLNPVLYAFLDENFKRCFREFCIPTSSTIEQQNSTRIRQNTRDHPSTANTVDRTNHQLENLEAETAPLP

Compound	GPI naloxone DR [1]	GPI nor-BN1 DR [1]	GPI nor-BN1 Ke [1]	GPI nor-BN1 pA2 [1]	IC50 [3] [nM]	Ki (μ opioid receptor) [nM]	Ki ratio κ/μ (μ opioid receptor)	Ki ratio μ/δ (δ opioid receptor [4])	Ki ratio μ/δ (δ opioid receptor [4]; selectivity ratio)	Ki (δ opioid receptor [2]) [nM]	IC50 (mouse T cells; [6]) [µg/mL]	Ki (κ opioid receptor) [nM]	MVD Antagonism to DPDPE, DR (δ-receptor; (20 nM))	MVD Antagonism to DPDPE, DR (δ-receptor; (50 nM))	Kb (δ-receptor; [7]) [nM]	Kb (δ-receptor; [8]) [nM]	further results
CN1CC[C@]2(c3cccc(O)c3)Cc3[nH]c4ccc(Br)cc4c3C[C@H]2C1 (relative stereo) [Compound 10, 2-Methyl-4aα-(3-hydroxyphenyl)-9-bromo-1,2,3,4,4a,5,11,11aβ-octahydro-6H-indolo[2,3-g]isoquinoline]	0.92	1.31	64.5	7.19	14300	–	–	–	–	–	–	–	–	–	–	–	Ki (δ opioid receptor [2]; [5]): 1390 nM; IC50 (Mouse Vas Deferens (MVD)): 21900 nM
Cn1c2c(c3ccccc31)C[C@H]1CN(CC3CC3)CC[C@]1(c1cccc(O)c1)C2 (relative stereo) [Compound 25, 2-Cyclopropylmethyl-4aα-(3-hydroxyphenyl)-1,2,3,4,4a,5,11,11aβ-octahydro-6-methyl-indolo[2,3-g]isoquinoline]	0.55	0.77	–	–	14500	1530	0.09	52.0	552	2.77	3	144	–	–	–	–	–
Oc1cccc([C@]23CCN(CC4CC4)C[C@@H]2Cc2c([nH]c4c(F)cccc24)C3)c1 (relative stereo) [Compound 29, 2-Cyclopropylmethyl-4aα-(3-hydroxyphenyl)-7-fluoro-1,2,3,4,4a,5,11,11aβ-octahydro-6H-indolo[2,3-g]isoquinoline]	2.50	2.06	18.9	7.72	6640	1180	0.31	194	618	1.91	0.9	370	6.22	34.1	3.89	1.51	–
C=CCN1CC[C@]2(c3cccc(O)c3)Cc3[nH]c4ccccc4c3C[C@H]2C1 (relative stereo) [Compound 31, 2-Allyl-4aα-(3-hydroxyphenyl)-1,2,3,4,4a,5,11,11aβ-octahydro-6H-indolo[2,3-g]isoquinoline]	0.93	0.98	–	–	20500	27000	0.09	754	> 9090	2.97	2.6	2240	–	–	–	–	Kb (δ-receptor; [9]): 12.9 nM; MVD Antagonism to DPDPE at 100 nM, DR (δ-receptor; at 100 nM): 4.84
Oc1cccc([C@]23CCN(CC4CC4)C[C@@H]2Cc2c([nH]c4ccc(F)cc24)C3)c1 (relative stereo) [Compound 37, 2-Cyclopropylmethyl-4aα-(3-hydroxyphenyl)-9-fluoro-1,2,3,4,4a,5,11,11aβ-octahydro-6H-indolo[2,3-g]isoquinoline]	1.19	1.26	–	–	10500	1550	0.22	49.3	223	6.94	1.9	342	–	–	–	–	Kb (δ-receptor; [9]): 6.31 nM; MVD Antagonism to DPDPE at 100 nM, DR (δ-receptor; at 100 nM): 8.93
Oc1cccc([C@]23CCN(CC4CC4)C[C@@H]2Cc2c([nH]c4c(Cl)cccc24)C3)c1 (relative stereo) [Compound 40, 2-Cyclopropylmethyl-4aα-(3-hydroxyphenyl)-7-chloro-1,2,3,4,4a,5,11,11aβ-octahydro-6H-indolo[2,3-g]isoquinoline]	2.17	2.05	19.0	7.72	11700	1650	0.57	113	199	8.31	2.6	936	3.02	18.5	10	2.88	–
Oc1cccc([C@]23CCN(CC4CC4)C[C@]2(O)Cc2c([nH]c4ccccc24)C3)c1 (relative stereo) [Compound 56]	–	–	–	–	–	723	2.14	906	423	1.71	14	1550	–	–	–	–	–
Oc1cccc([C@]23CCN(CC4CC4)C[C@@H]2Cc2c([nH]c4ccccc24)C3)c1 (single isomer, unassigned) [Compound 47, (+)-2-Cyclopropylmethyl-4aα-(3-hydroxyphenyl)-1,2,3,4,4a,5,11,11aβ-octahydro-6H-indolo[2,3-g]isoquinoline]	1.06	1.29	–	–	64500	1170	–	–	–	0.37	3.8	388	4.44	30.5	5.75	1.7	–
Oc1cccc([C@]23CCN(CC4CC4)C[C@@H]2Cc2c([nH]c4ccccc24)C3)c1 (single isomer, unassigned) [Compound 52, (-)-2-Cyclopropylmethyl-4aα-(3-hydroxyphenyl)-1,2,3,4,4a,5,11,11aβ-octahydro-6H-indolo[2,3-g]isoquinoline]	1.06	1.03	–	–	16400	81100	–	–	–	–	–	2280	–	–	–	–	Ki (δ opioid receptor [2]; [5]): 135 nM; IC50, activity in inhibiting T cell hyperplasia (Table 3) (mouse T cells; ConA-stimulated mouse T cells): 3.5 µg/mL; Kb (δ-receptor; at 100 nM): 158 nM; MVD Antagonism to DPDPE at 100 nM, Ke (δ-receptor; at 100 nM): 158
Oc1ccc2c3c1O[C@H]1c4[nH]c5ccccc5c4C[C@@]4(O)[C@@H](C2)N(CC2CC2)CC[C@]314 [NTI, nartol indole, reference compound]	–	–	–	–	–	–	–	–	100	–	–	–	–	–	–	–	inhibition at 0.1 µg/mL (mouse T cells; [10]): 0%; inhibition at 0.5 µg/mL (mouse T cells; [10]): 0%; inhibition at 0.75 µg/mL (mouse T cells; [10]): 0%; inhibition at 1 µg/mL (mouse T cells; [10]): 0%; inhibition at 2.5 µg/mL (mouse T cells; [10]): 0%; inhibition at 5 µg/mL (mouse T cells; [10]): 15%; inhibition at 7.5 µg/mL (mouse T cells; [10]): 35%; inhibition at 10 µg/mL (mouse T cells; [10]): 62%; inhibition at 12.5 µg/mL (mouse T cells; [10]): 85%; inhibition at 15 µg/mL (mouse T cells; [10]): 98%; inhibition at 17.5 µg/mL (mouse T cells; [10]): 100%; inhibition at 20 µg/mL (mouse T cells; [10]): 100%; IC50 (mouse T cells; Mus musculus, T-cell, read-out: IC50 value, immunosuppression (text to Table 2)): 8.6 µg/mL

— US5539119A, “Indole derivatives” (priority 1990, dated 1996)
